Test results reported in patent US12612387B2, “RAS inhibitors and methods of using the same” (Jazz Pharmaceuticals Ireland Limited, priority 2020, dated 2026).

Assays:
[1] = target: T1, K-RAS G12D (Homo sapiens, UniProt P01116, G12D); test: Compound depletion assay, K-RAS G12D; type: binding; details: G12D protein 20 μM, compound 8 μM, 25° C.
T1 construct: His tag; purchased Stratech
Procedure, shortened: (§1)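 His-tagged K-RAS (20 μM) in 20 mM HEPES pH 7.5, 150 mM NaCl, 1 mM MgCl2 incubated with 8 μM compound (final) at 25 °C with agitation. At 0, 30, 180, 360, 1440 min, samples were acid/acetonitrile-quenched and remaining free compound quantified by LC-MS/MS against propranolol, as percent of time zero.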

[2] = target: T2, K-RAS G12C (Homo sapiens, UniProt P01116, G12C); test: Compound depletion assay, K-RAS G12C; type: binding; details: G12C protein 20 μM, compound 8 μM, 25° C.
T2 construct: His tag; purchased Stratech
T2 sequence (P01116 1-188 isoform P01116-2 G12C): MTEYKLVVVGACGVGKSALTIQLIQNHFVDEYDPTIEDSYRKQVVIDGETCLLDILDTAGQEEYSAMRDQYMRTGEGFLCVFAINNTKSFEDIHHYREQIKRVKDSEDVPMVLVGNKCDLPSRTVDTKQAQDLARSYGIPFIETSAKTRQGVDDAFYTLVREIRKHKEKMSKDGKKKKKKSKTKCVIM
Procedure, shortened: as §1

T1 sequence (P01116 1-188 isoform P01116-2 G12D): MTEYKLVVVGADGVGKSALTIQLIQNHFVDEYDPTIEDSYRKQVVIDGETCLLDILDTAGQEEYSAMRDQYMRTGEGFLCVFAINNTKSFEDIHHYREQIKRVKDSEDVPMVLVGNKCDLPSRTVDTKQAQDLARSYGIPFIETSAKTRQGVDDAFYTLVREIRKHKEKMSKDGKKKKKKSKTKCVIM

Structure (SMILES) | 30 min Category (compound remaining at timepoint) [1] | 3 hr Category (compound remaining at timepoint) [1] | 6 hr Category (compound remaining at timepoint) [1] | 30 min Category (compound remaining at timepoint) [2] | 3 hr Category (compound remaining at timepoint) [2] | 6 hr Category (compound remaining at timepoint) [2]
C=CC(=O)N1CCN(c2cc(C(=O)Nc3cc(O)cc4ccccc34)nc(NCC3CCCN(C)C3)n2)C[C@@H]1CC#N (stereo partly drawn) [Example 43, 6-[(3S)-3-(cyanomethyl)-4-prop-2-enoyl-piperazin-1-yl]-N-(3-hydroxy-1-naphthyl)-2-[(1-methyl-3-piperidyl)methylamino]pyrimidine-4-carboxamide] | A (≥70% compound remaining at timepoint) | A (≥70% compound remaining at timepoint) | A (≥70% compound remaining at timepoint) | B (30%-70% compound remaining at timepoint) | C (≤30% compound remaining at timepoint) | C (≤30% compound remaining at timepoint)
C=CC(=O)N1CCN(c2cc(C(=O)Nc3cc(O)cc4ccccc34)nc(NC[C@@H]3CCCN3Cc3ccccc3)n2)C[C@@H]1CC#N [Example 44, 2-[[(2S)-1-benzylpyrrolidin-2-yl]methylamino]-6-[(3S)-3-(cyanomethyl)-4-prop-2-enoyl-piperazin-1-yl]-N-(3-hydroxy-1-naphthyl)pyrimidine-4-carboxamide] | A (≥70% compound remaining at timepoint) | A (≥70% compound remaining at timepoint) | A (≥70% compound remaining at timepoint) | A (≥70% compound remaining at timepoint) | B (30%-70% compound remaining at timepoint) | B (30%-70% compound remaining at timepoint)
C=CC(=O)N1CCN(c2cc(C(=O)Nc3cc(O)cc4ccccc34)nc(NCC3CCCN3C)n2)C[C@@H]1CC#N (stereo partly drawn) [Example 45, 6-[(3S)-3-(cyanomethyl)-4-prop-2-enoyl-piperazin-1-yl]-N-(3-hydroxy-1-naphthyl)-2-[(1-methylpyrrolidin-2-yl)methylamino]pyrimidine-4-carboxamide] | A (≥70% compound remaining at timepoint) | A (≥70% compound remaining at timepoint) | A (≥70% compound remaining at timepoint) | B (30%-70% compound remaining at timepoint) | C (≤30% compound remaining at timepoint) | C (≤30% compound remaining at timepoint)
C=CC(=O)N1CCN(c2cc(C(=O)Nc3cc(O)cc4ccccc34)nc(NC[C@@H]3CCCN3CCO)n2)C[C@@H]1CC#N [Example 46, 6-[(3S)-3-(cyanomethyl)-4-prop-2-enoyl-piperazin-1-yl]-2-[[(2S)-1-(2-hydroxyethyl)pyrrolidin-2-yl]methylamino]-N-(3-hydroxy-1-naphthyl)pyrimidine-4-carboxamide] | A (≥70% compound remaining at timepoint) | A (≥70% compound remaining at timepoint) | A (≥70% compound remaining at timepoint) | B (30%-70% compound remaining at timepoint) | C (≤30% compound remaining at timepoint) | C (≤30% compound remaining at timepoint)
C=CC(=O)N1CCN(c2cc(C(=O)Nc3cc(O)cc4ccccc34)nc(OCCC3CCCN3C)n2)C[C@@H]1CC#N (stereo partly drawn) [Example 47, 6-[(3S)-3-(cyanomethyl)-4-prop-2-enoyl-piperazin-1-yl]-N-(3-hydroxy-1-naphthyl)-2-[2-(1-methylpyrrolidin-2-yl)ethoxy]pyrimidine-4-carboxamide] | A (≥70% compound remaining at timepoint) | A (≥70% compound remaining at timepoint) | A (≥70% compound remaining at timepoint) | C (≤30% compound remaining at timepoint) | C (≤30% compound remaining at timepoint) | C (≤30% compound remaining at timepoint)
C=CC(=O)N1CCN(c2cc(C(=O)Nc3cc(O)cc4ccccc34)nc(OCC3CCCCN3C)n2)C[C@@H]1CC#N (stereo partly drawn) [Example 48, 6-[(3S)-3-(cyanomethyl)-4-prop-2-enoyl-piperazin-1-yl]-N-(3-hydroxy-1-naphthyl)-2-[(1-methyl-2-piperidyl)methoxy]pyrimidine-4-carboxamide] | A (≥70% compound remaining at timepoint) | A (≥70% compound remaining at timepoint) | A (≥70% compound remaining at timepoint) | C (≤30% compound remaining at timepoint) | C (≤30% compound remaining at timepoint) | C (≤30% compound remaining at timepoint)
C=CC(=O)N1CCN(c2cc(C(=O)Nc3cc(O)cc4ccccc34)nc(NCC3CCCCN3C)n2)C[C@@H]1CC#N (stereo partly drawn) [Example 49, 6-[(3S)-3-(cyanomethyl)-4-prop-2-enoyl-piperazin-1-yl]-N-(3-hydroxy-1-naphthyl)-2-[(1-methyl-2-piperidyl)methylamino]pyrimidine-4-carboxamide] | A (≥70% compound remaining at timepoint) | A (≥70% compound remaining at timepoint) | A (≥70% compound remaining at timepoint) | B (30%-70% compound remaining at timepoint) | C (≤30% compound remaining at timepoint) | C (≤30% compound remaining at timepoint)
C=CC(=O)N1CCN(c2cc(C(=O)Nc3cc(O)cc4ccccc34)nc(OCC3CCCN(C)C3)n2)C[C@@H]1CC#N (stereo partly drawn) [Example 50, 6-[(3S)-3-(cyanomethyl)-4-prop-2-enoyl-piperazin-1-yl]-N-(3-hydroxy-1-naphthyl)-2-[(1-methyl-3-piperidyl)methoxy]pyrimidine-4-carboxamide] | A (≥70% compound remaining at timepoint) | A (≥70% compound remaining at timepoint) | A (≥70% compound remaining at timepoint) | C (≤30% compound remaining at timepoint) | C (≤30% compound remaining at timepoint) | C (≤30% compound remaining at timepoint)
C=CC(=O)N1CCN(c2cc(C(=O)Nc3cc(O)cc4ccccc34)nc(OC[C@@H]3CCCN3CC)n2)C[C@@H]1CC#N [Example 51, 6-[(3S)-3-(cyanomethyl)-4-prop-2-enoyl-piperazin-1-yl]-2-[[(2S)-1-ethylpyrrolidin-2-yl]methoxy]-N-(3-hydroxy-1-naphthyl)pyrimidine-4-carboxamide] | A (≥70% compound remaining at timepoint) | A (≥70% compound remaining at timepoint) | A (≥70% compound remaining at timepoint) | C (≤30% compound remaining at timepoint) | C (≤30% compound remaining at timepoint) | C (≤30% compound remaining at timepoint)
C=CC(=O)N1CCN(c2cc(C(=O)Nc3cc(O)cc4ccccc34)nc(OC[C@@H]3CCCN3CCO)n2)C[C@@H]1CC#N [Example 53, 6-[(3S)-3-(cyanomethyl)-4-prop-2-enoyl-piperazin-1-yl]-2-[[(2S)-1-(2-hydroxyethyl)pyrrolidin-2-yl]methoxy]-N-(3-hydroxy-1-naphthyl)pyrimidine-4-carboxamide] | A (≥70% compound remaining at timepoint) | A (≥70% compound remaining at timepoint) | A (≥70% compound remaining at timepoint) | C (≤30% compound remaining at timepoint) | C (≤30% compound remaining at timepoint) | C (≤30% compound remaining at timepoint)
C=CC(=O)N1CCN(c2cc(C(=O)Nc3cc(O)cc4ccccc34)nc(OC[C@@H]3CCCN3C(C)C)n2)C[C@@H]1CC#N [Example 54, 6-[(3S)-3-(cyanomethyl)-4-prop-2-enoyl-piperazin-1-yl]-N-(3-hydroxy-1-naphthyl)-2-[[(2S)-1-isopropylpyrrolidin-2-yl]methoxy]pyrimidine-4-carboxamide] | A (≥70% compound remaining at timepoint) | A (≥70% compound remaining at timepoint) | A (≥70% compound remaining at timepoint) | C (≤30% compound remaining at timepoint) | C (≤30% compound remaining at timepoint) | C (≤30% compound remaining at timepoint)
